Patent publication US20220072101A1, “HARNESSING INFLAMMATION TO TREAT NEURODEVELOPMENTAL DISORDERS” (President and Fellows of Harvard College, priority 2019, published 2022)
Entries after “also recorded” stand apart in the source; their conditions may differ.

Experiments:
c-Fos = assay: Quantification of c-Fos+ cells in the brain after LPS administration; type: in vivo, mouse
Method: Animals were transcardially perfused with cold PFA (4% in PBS). Brains were kept in PFA overnight at 4° C. prior to vibratome sectioning (Leica VT1000s®). Brains were cut at 50 μm thickness for cFos quantification. Brains were cut at 100 μm thickness for all other experiments.
Prior to antibody labeling, sections were incubated in blocking solution (0.4% Triton X-100 and 2% goat serum in PBS) for 30 min. Sections were then incubated in blocking solution containing primary antibodies overnight at room temperature. Primary antibodies used were chicken anti-GFP (1:1000, Ab5450, Abcam®), rabbit anti-cFos (1:500, ABE457, Millipore®), rabbit anti-DsRed (1:1000, 632496, Clontech®). Sections were washed in wash buffer (0.4% Triton X-100 in PBS) three times before secondary antibody labeling. Sections were incubated in blocking solution containing secondary antibodies and DAPI (1:5000, D1306, Thermofisher™) for three hours at room temperature. Images of stained slices were acquired using a confocal microscope (LSM710, Carl Zeiss®) with a 10× or 20× objective lens.
Adult male mice were sacrificed five hours after LPS injection. c-Fos+ cells were quantified using the Cell Counter plugin in Fiji^25. All cells were counted within a single coronal section of each respective brain region as defined by the Paxinos and Franklin Mouse Atlas^26. Regions quantified include mPFC (Including only PrL and IL) (AP+1.98), S1DZ (AP-0.48), S1BF (AP-0.48), M1 (AP-0.46), M2 (AP-0.46), AuD (AP-1.94), CeA (AP-1.94), and V1 (AP-3.64). Somatosensory cortex dysgranular zone (S1DZ), somatosensory cortex barrel field (S1BF), secondary motor cortex (M2), primary motor cortex (M1), secondary auditory cortex dorsal part (AuD), central amygdala (CeA), medial prefrontal cortex (mPFC), prelimbic cortex (PrL), infralimbic cortex (IL), primary visual cortex (V1).
Adult male mice were sacrificed five hours after LPS injection. c-Fos^+ cells were quantified using the Cell Counter plugin in Fiji^28. All cells were counted within a single coronal section of each respective brain region as defined by the Paxinos and Franklin Mouse Atlas^29. Regions quantified include mPFC (PrL and IL) (AP+1.98), S1DZ (AP-0.46), S1BF (AP-0.46), M1 (AP-0.46), M2 (AP-0.46), AuD (AP-1.94), CeA (AP-1.94), and V1 (AP-3.64). Medial prefrontal cortex (mPFC), prelimbic cortex (PrL), infralimbic cortex (IL), primary somatosensory cortex dysgranular zone (S1DZ), primary somatosensory cortex barrel field (S1BF), primary motor cortex (M1), secondary motor cortex (M2), secondary auditory cortex dorsal part (AuD), central amygdala (CeA), primary visual cortex (V1). […]

BBB = BBB permeability (Evans blue); type: in vivo, mouse
Method: BBB permeability was assessed with Evans blue (Sigma Aldrich®). The Evans blue dye binds to serum albumin (69,000 Da) to become a high-molecular-weight protein tracer. Mice were injected with 100 μl of Evans blue solution (10 mg/kg in PBS) intravenously. After 30 min, all injected mice were sacrificed. Whole brains were then removed and photographed. The brain tissues were disrupted in lysis buffer at full speed for 60 seconds using a Micro-Homogenizer (VWR International®). The fluorescence was determined using a Spectrophotometer (BioTek Instruments®) with excitation at 620 nm and emission at 680 nm.

S1DZ neurons = assay: In vivo electrophysiology, firing rate of S1DZ neurons in awake mice; parameters: species or system mouse
Method: Electrophysiological experiments were conducted in head-fixed mice trained to walk on a rotating running wheel. Prior to training, mice were implanted with custom crowns permitting head-fixing above the wheel and allowed to recover for one week before training. Mice were trained to walk on the wheel for three 10 min sessions daily for at least one week. Following training, mice were implanted with a multi-electrode array targeting the S1DZ and allowed to recover before testing. To assess IL-17a dependence of LPS-induced changes in neural activity, mice were injected i.p. with control antibodies or blocking antibody against IL-17a (1 mg/mouse), 30 min prior to i.p. vehicle or LPS injection. Baseline neural activity was measured while mice were running on the wheel immediately prior to the first injection. Following the first injection, mice were returned to their home cage. Post-injection (Test) neural activity during wheel running was measured 4 hrs after vehicle or LPS injection.
Custom multi-electrode array scaffolds (drive bodies) were designed using 3D CAD software (SolidWorks®) and printed in Accura 55 Plastic™ (American Precision Prototyping®) as described previously^31,32. […]
Firing rate was calculated across one second time windows during which animals were walking stably on the rotating wheel averaged across 25-50 trials per condition. […]

lipopolysaccharide [LPS]
number of c-Fos+ S1DZ neurons (c-Fos; LPS-treated MIA offspring, five hours after LPS): indistinguishable from that of PBS offspring; also recorded: reduced to levels of control offspring | number of c-Fos-expressing neurons in the central amygdala (CeA) (c-Fos; MIA offspring, LPS): increased | number of c-Fos-expressing neurons in other cortical regions (c-Fos; MIA offspring, LPS, S1BF, M1, M2, mPFC, AuD, V1): remained unchanged; also recorded: does not have a distinguishable effect on c-Fos expression in other cortical regions analyzed | number of S1DZ c-Fos+ neurons (c-Fos; monogenic mutant mice (Cntnap2, Fmr1, Shank3), LPS): failed to reduce the number of S1DZ c-Fos^+ neurons in monogenic mutant mice | BBB permeability (leakage of i.v. Evans Blue into the brain) (BBB; MIA offspring, LPS 3.5 hr before Evans Blue): can increase BBB permeability | LPS-induced increase in EB leakage in knockout animals (BBB; animals genetically deficient for IFNγ or IL-17a): prevented in animals genetically deficient for IFNγ, but not IL-17a | overall firing rate of S1DZ neurons (S1DZ neurons; MIA offspring, 4 hrs after LPS): a decrease in overall firing rate was observed | firing rate in the S1DZ (S1DZ neurons; control (PBS) offspring): Neither LPS nor IL-17a blocking antibody treatment changed the firing rate
